Assay results reported in ChEMBL document CHEMBL1201862, “PubChem BioAssay data set” (2004).
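How tested: cells in 96-well plates exposed to compound for 48 hours at five concentrations. Abbreviation: GI50, concentration required for 50% inhibition of growth.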 Calls of active or inactive are those of the source. No stated cut-off is given here; in the data, active = GI50 up to about 1.1 µM and inactive = higher.

How the values were obtained:
Assay in all cases: inhibition of tumour cell growth, NCI panel, 48 h
EKVX = test system: EKVX
786-0 = test system: 786-0
SN12C = test system: SN12C
SK-MEL-2 = test system: SK-MEL-2
HT-29 = test system: HT-29
SK-OV-3 = test system: SK-OV-3
T47D = test system: T47D
NCI-H23 = test system: NCI-H23
HCT-116 = test system: HCT-116
TK-10 = test system: TK-10
SNB-19 = test system: SNB-19
MOLT-4 = test system: MOLT-4
CAKI-1 = test system: CAKI-1
NCI-H226 = test system: NCI-H226
SNB-75 = test system: SNB-75
OVCAR-3 = test system: OVCAR-3
HCT-15 = test system: HCT-15
OVCAR-5 = test system: OVCAR-5
SF-268 = test system: SF-268
MCF7 = test system: MCF7

Compound | GI50 (EKVX) | GI50 (786-0) | GI50 (SN12C) | GI50 (SK-MEL-2) | GI50 (HT-29) | GI50 (SK-OV-3) | GI50 (T47D) | GI50 (NCI-H23) | GI50 (HCT-116) | GI50 (TK-10) | GI50 (SNB-19) | GI50 (MOLT-4) | GI50 (CAKI-1) | GI50 (NCI-H226) | GI50 (SNB-75) | GI50 (OVCAR-3) | GI50 (HCT-15) | GI50 (OVCAR-5) | GI50 (SF-268) | GI50 (MCF7)
COc1cc(OC)cc(-c2nc(O)c3ccccc3n2)c1 | > 100 µM (inactive) | 25.4 µM (inactive) | > 100 µM (inactive) | > 100 µM (inactive) | > 100 µM (inactive) | 22.8 µM (inactive) | > 100 µM (inactive) | > 100 µM (inactive) | 42.5 µM (inactive) | 43.5 µM (inactive) | 49 µM (inactive) | > 100 µM (inactive) | > 100 µM (inactive) | > 100 µM (inactive) | 29.6 µM (inactive) | > 100 µM (inactive) | > 100 µM | > 100 µM (inactive) | 63.2 µM (inactive) | 
CC(=O)Oc1cc2c(cc1OC(C)=O)[C@H]1CC[C@]3(C)[C@@H](OC(C)=O)CC[C@H]3[C@@H]1CC2 | 2.56 µM (inactive) | 4.78 µM (inactive) |  | 3.06 µM (inactive) | 5.14 µM (inactive) | 6.38 µM (inactive) | 7.26 µM (inactive) | 10.2 µM (inactive) |  | 8.28 µM (inactive) | 6.65 µM (inactive) |  | 3.22 µM (inactive) |  | 0.162 µM (active) | 2.21 µM (inactive) | 1.48 µM | 10.1 µM (inactive) | 4.66 µM (inactive) | 6.37 µM (inactive)
CC(=O)c1c(C)[n+]([O-])c2cc(Cl)c(Cl)cc2[n+]1[O-] | 28.6 µM (inactive) | 27.5 µM (inactive) | 20.2 µM (inactive) | 27.6 µM (inactive) | 18.5 µM (inactive) | 19.4 µM (inactive) | 12.7 µM (inactive) | 26.4 µM (inactive) | 15.6 µM (inactive) | 16.9 µM (inactive) | 30.8 µM (inactive) | 8.22 µM (inactive) | 18.7 µM (inactive) |  |  | 19.9 µM (inactive) | 12.2 µM | 38.3 µM (inactive) | 28.3 µM (inactive) | 14.8 µM (inactive)
O=C1CC(Br)c2c(Cl)sc(Cl)c21 (centres undefined) | 17.5 µM (inactive) | 3.04 µM (inactive) | 14.1 µM (inactive) | 15.8 µM (inactive) | 11.4 µM (inactive) | 16.7 µM (inactive) | 4.18 µM (inactive) | 16.4 µM (inactive) | 4.56 µM (inactive) | 2.54 µM (inactive) | 19.3 µM (inactive) | 1.94 µM (inactive) | 3.1 µM (inactive) |  | 15.2 µM (inactive) | 2.38 µM (inactive) | 8.07 µM | 18 µM (inactive) | 6.58 µM (inactive) | 3.66 µM (inactive)
CC(C)Cc1cnc(CC(C)C)c(=O)[nH]1 | > 100 µM (inactive) | > 100 µM (inactive) | > 100 µM (inactive) | > 100 µM (inactive) | > 100 µM (inactive) | > 100 µM (inactive) | > 100 µM (inactive) | > 100 µM (inactive) | > 100 µM (inactive) | > 100 µM (inactive) | > 100 µM (inactive) | > 100 µM (inactive) | > 100 µM (inactive) |  | > 100 µM (inactive) | > 100 µM (inactive) | > 100 µM | > 100 µM (inactive) | > 100 µM (inactive) | > 100 µM (inactive)
CCN(CC)C(=O)C1=C(C)NC(C)=C(C(=O)N(CC)CC)C1 | > 100 µM (inactive) | > 100 µM (inactive) | > 100 µM (inactive) | > 100 µM (inactive) |  | > 100 µM (inactive) | 58.1 µM (inactive) | > 100 µM (inactive) | > 100 µM (inactive) | > 100 µM (inactive) | > 100 µM (inactive) | > 100 µM (inactive) | > 100 µM (inactive) |  | 14.5 µM (inactive) | > 100 µM (inactive) | > 100 µM | > 100 µM (inactive) | 53 µM (inactive) | > 100 µM (inactive)
CC(=O)Oc1ccc2c(c1OC(C)=O)CCC1C2=CC[C@]2(C)C(=O)CCC12 (some centres undefined) | 10.5 µM (inactive) | 2.47 µM (inactive) | 14.1 µM (inactive) | 15.1 µM (inactive) | 17.6 µM (inactive) | 20.7 µM (inactive) | 9.46 µM (inactive) | 21.4 µM (inactive) | 4.92 µM (inactive) | 13.9 µM (inactive) | 12.5 µM (inactive) | 3.3 µM (inactive) | 6.07 µM (inactive) |  |  | 2.44 µM (inactive) | 10.6 µM | 15.1 µM (inactive) | 12.1 µM (inactive) | 14.2 µM (inactive)
NC(Cc1ccc2nc3c4ccccc4c(=O)cc-3oc2c1)C(=O)O (centres undefined) | > 100 µM (inactive) | > 100 µM (inactive) | > 100 µM (inactive) | 53.3 µM (inactive) | 71.3 µM (inactive) | > 100 µM (inactive) | > 100 µM (inactive) | 17.6 µM (inactive) | > 100 µM (inactive) | > 100 µM (inactive) | > 100 µM (inactive) |  | > 100 µM (inactive) |  | 65.8 µM (inactive) | 74.1 µM (inactive) | > 100 µM | > 100 µM (inactive) | > 100 µM (inactive) | 18.4 µM (inactive)
O=CC(O)C(O)C(O)COc1cc(CO)cc2c1C(=O)c1ccccc1C2=O (centres undefined) | > 100 µM (inactive) | > 100 µM (inactive) | > 100 µM (inactive) | > 95.5 µM (inactive) | > 100 µM (inactive) | > 100 µM (inactive) |  | > 100 µM (inactive) | > 100 µM (inactive) | > 100 µM (inactive) | > 100 µM (inactive) | > 100 µM (inactive) | > 93.8 µM (inactive) | > 100 µM (inactive) | > 100 µM (inactive) | 76.4 µM (inactive) | > 100 µM | > 100 µM (inactive) | > 100 µM (inactive) | 
C[n+]1c2ccc(Cl)cc2nc2cc(-c3ccccc3)ccc21 | 10.8 µM (inactive) | 35.3 µM (inactive) | 4.24 µM (inactive) | 19.8 µM (inactive) | 2.9 µM (inactive) |  |  | 5.41 µM (inactive) | 16.7 µM (inactive) | 22.8 µM (inactive) | 5.12 µM (inactive) | 1.61 µM (inactive) | 16.4 µM (inactive) | 19.1 µM (inactive) | 24.7 µM (inactive) | 2.03 µM (inactive) | 7.76 µM | 24.1 µM (inactive) | 14.7 µM (inactive) | 1.32 µM (inactive)
CC(=O)NC1C(CO)O[C@@H]2OC(C)(C)O[C@H]12 (some centres undefined) | > 100 µM (inactive) | > 100 µM (inactive) | > 100 µM (inactive) | > 100 µM (inactive) | > 100 µM (inactive) |  |  | > 100 µM (inactive) | > 100 µM (inactive) | > 100 µM (inactive) | > 100 µM (inactive) | > 100 µM (inactive) | > 100 µM (inactive) |  | > 100 µM (inactive) | > 100 µM (inactive) | > 100 µM | > 100 µM (inactive) | > 100 µM (inactive) | > 100 µM (inactive)
O=c1[nH]c2c(nc1NC13CC4CC(CC(C4)C1)C3)c(=O)oc1ccccc12 | > 100 µM (inactive) | > 100 µM (inactive) | > 100 µM (inactive) | > 100 µM (inactive) | > 100 µM (inactive) | > 100 µM (inactive) |  | 26.2 µM (inactive) | > 100 µM (inactive) | > 100 µM (inactive) | 62.2 µM (inactive) | > 100 µM (inactive) | 2.46 µM (inactive) | 27.9 µM (inactive) | 29.5 µM (inactive) | > 100 µM (inactive) | > 100 µM | > 100 µM (inactive) | > 100 µM (inactive) | 
C=C1C(=O)O[C@H]2C1C[C@H](O)/C(C)=C/CC[C@@]1(C)O[C@H]21 (some centres undefined) | 19 µM (inactive) | 16.9 µM (inactive) | 18.2 µM (inactive) | 15.2 µM (inactive) | 23.3 µM (inactive) | 36.5 µM (inactive) |  | 19 µM (inactive) | 14.8 µM (inactive) | 15.6 µM (inactive) | 60.1 µM (inactive) | 2.59 µM (inactive) | 14.5 µM (inactive) |  | 32.3 µM (inactive) |  | 12.2 µM | 19.1 µM (inactive) | 29.4 µM (inactive) | 13.2 µM (inactive)
CN(C)CCCNC(=O)c1cc(NC(=O)c2cc(NC(=O)[C@@H]3C[C@H]3C(=O)Nc3cc(C(=O)Nc4cc(C(=O)NCCCN(C)C)n(C)c4)n(C)c3)cn2C)cn1C | > 100 µM (inactive) | > 100 µM (inactive) | > 100 µM (inactive) | > 100 µM (inactive) | > 100 µM (inactive) |  |  | > 100 µM (inactive) | > 100 µM (inactive) |  | > 100 µM (inactive) | > 100 µM (inactive) | > 100 µM (inactive) | > 100 µM (inactive) | > 100 µM (inactive) |  |  | > 100 µM (inactive) | > 100 µM (inactive) | > 100 µM (inactive)
C=C(Cl)C(=C)CCC(Cl)C(C)(C)Cl (centres undefined) | > 100 µM (inactive) | > 100 µM (inactive) | > 100 µM (inactive) | > 100 µM (inactive) | > 100 µM (inactive) | > 100 µM (inactive) |  | > 100 µM (inactive) | > 100 µM (inactive) | > 100 µM (inactive) | > 100 µM (inactive) | > 100 µM (inactive) | > 100 µM (inactive) | > 100 µM (inactive) | > 100 µM (inactive) | > 100 µM (inactive) |  | > 100 µM (inactive) | > 100 µM (inactive) | > 100 µM (inactive)
Cc1ccccc1-c1nc2c(N)nc(N)nc2nc1N | 38.1 µM (inactive) | 7.23 µM (inactive) | 6.84 µM (inactive) | > 100 µM (inactive) | > 100 µM (inactive) | > 100 µM (inactive) |  | 4.95 µM (inactive) | 1.67 µM (inactive) | > 100 µM (inactive) | 44.3 µM (inactive) | 3.77 µM (inactive) | 9.35 µM (inactive) |  | 22.3 µM (inactive) | > 100 µM (inactive) | 4.15 µM | 39.9 µM (inactive) | 8.38 µM (inactive) | 30.2 µM (inactive)
